# From paper PMC3973950, “Synthesis of 5-arylidine amino-1,3,4-thiadiazol-2-[(N-substituted benzyol)]sulphonamides endowed with potent antioxidants and anticancer activity induces growth inhibition in HEK293, BT474 and NCI-H226 cells” (Medicinal Chemistry Research, 2013)
# Legend:
# [1] = Total antioxidant activity (ABTS radical cation scavenging); format: biochemical; details: Conc. ± SD; three independent experiments in duplicate; standard trolox; read-out: IC50 inhibitory concentration, ABTS^+ radical
# Procedure: The ability of the test sample to scavenge 2,2′-azinobis-(3-ethylbenzothiazoline-6-sulphonic acid) (ABTS^·+) radical cation was compared with 6-hydroxy-2,5,7,8-tetramethylchroman-2-carboxylic acid (trolox) standard (Chang et al., [2007]; Erel, [2004]; Re et al., [1999]). The ABTS^·+ radical cation was pregenerated by mixing ABTS stock solution (7 mM) with potassium persulphate (2.45 mM) (final concentration) and incubating for 12–16 h in the dark at room temperature until the reaction was complete and the absorbance was stable. The absorbance of the ABTS^·+ solution was equilibrated to 0.70 (±0.02) by diluting with water at room temperature, then 1 mL of solution was mixed with 10 μL of the test sample (0.05–10 mg/mL), and the absorbance was measured at 734 nm after 6 min. All experiments were repeated three times. The percentage inhibition of absorbance was calculated and plotted as a function of the concentration of standard and sample to determine the trolox equivalent antioxidant concentration (TEAC). To calculate the TEAC, the gradient of the plot for the sample was divided by the gradient of the plot for trolox. The IC50 inhibitory concentration (nM/mL) values of tested compounds are depicted in Table 1. The ABTS^·+ radical scavenging activity of the samples was expressed as S%=[(Acontrol-Asample)/Acontrol]×100 where A control is the absorbance of the blank control (ABTS^·+ solution without test sample), and A sample is the absorbance of the test sample.
# [2] = DPPH radical scavenging activity; format: biochemical; details: Conc. ± SD; standard ascorbic acid; read-out: IC50 inhibitory concentration, DPPH radical
# Procedure: Compounds of SC series were evaluated for their in vitro free radical scavenging activities by 2,2-diphenyl-1-picrylhydrazyl (DPPH) assay method (Blois, [1958]; Shishoo et al., [1999]; Chhajed et al., [2007]). To determine the free radical scavenging activity, a method based on the reduction of a methanolic solution of the coloured DPPH radical was used. To a set of test tubes containing methanol (3 mL), DPPH reagent (2 mg/mL) (50 μL) was added. The initial absorbance was measured. To these test tubes, methanolic solution of different test solutions (1 mg/mL) were added (10–50 μL). Ascorbic acid (0.5 mg/mL) was also added in the concentration of 10, 20, 30, 40, 50 and 100 μL. After 20 min, absorbance was recorded at 516 nm. The experiment was performed in triplicate. The percentage reduction in absorbance was calculated from the initial and final absorbance of each solution (Dhar and Taploo, [1982]).
# [3] = Lipid peroxidation inhibitory activity (egg lecithin liposomes, TBA); format: biochemical; details: Conc. ± SD; standard ascorbic acid; read-out: IC50 inhibitory concentration, Lipid peroxidation
# Procedure: Egg lecithin (3 mg/mL phosphate buffer, pH 7.4) was sonicated in an ultrasonic sonicator for 10 min to ensure proper liposome formation. Test samples or standard, ascorbic acid (100 μL) of different concentrations (10, 20, 30, 40 50 and 100 μg/mL) was added to liposome mixture (1 mL); the control was without test sample. Lipid peroxidation was induced by adding ferric chloride (10 μL, 400 mM) and L-ascorbic acid (10 μL, 200 mM). After incubation for 1 h at 37 °C, the reaction was stopped by adding hydrochloric acid (2 mL, 0.25 N) containing trichloroacetic acid (150 mg/mL), thiobarbituric acid (3.75 mg/mL) and butylated hydroxy anisole (0.50 mg/mL). The reaction mixture was subsequently boiled for 15 min, cooled and centrifuged at 1,000 rpm for 15 min, and the absorbance of the supernatant was measured at 532 nm (Duh and Yen, [1997]). The % inhibition at different concentrations was calculated by the following formula %Inhibition=[1-(Vt/Vc)]×100 where V t = mean absorption of test compound, V c = mean absorption of control.
# The IC50 (nM/mL) value was derived from the % inhibition at different concentrations.
# [4] = Superoxide anion radical scavenging (NBT/NADH/PMS); format: biochemical; details: Conc. ± SD; standard catechin; read-out: IC50 inhibitory concentration, Superoxide anion
# Procedure: Measurement of superoxide anion scavenging activity of the synthesized compound was taken based on the method described by Nishimiki et al. ([1972]) and slightly modified. […] The reaction mixture was incubated at 25 °C for 5 min, and the absorbance at 560 nm was measured against blank samples. Catechin was used as reference compound. All the experiments were performed in triplicate, and the results were averaged. The percentage of inhibition was determined by comparing the results of control and test samples. The IC50 (nM/mL) value are depicted in Table 1.
# [5] = In vitro cytotoxicity by MTT assay, HEK 293; format: cell-based, human; details: human, HEK 293 cells, read-out: % cytotoxicity (100 − % cell survival) of HEK 293 cell line
# Outline: (§1)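 Monolayers seeded at […] (about 10,000 per well) were treated after 24 h with the synthesized compounds and incubated three days. Viability was taken from MTT reduction, with formazan measured at 490 nm.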
# [6] = system: NCI-H226 (lung cancer cell line); experiment: In vitro cytotoxicity by MTT assay, NCI-H226; format: cell-based; details: Homo sapiens, 72 h, read-out: % Cytotoxicity (100 − % cell survival) of NCI-H226 cell line
# Outline: as §1
# [7] = In vitro cytotoxicity by MTT assay, NCI-H226; format: cell-based; details: human, NCI-H226 lung cancer cells, 0.015 μM, read-out: % Cytotoxicity (100 − % cell survival) of NCI-H226 cell line
# Outline: as §1
# [8] = system: HEK 293, M468 and NCI-H226; experiment: In vitro cytotoxicity by MTT assay, summary over all cell lines; format: cell-based; details: on all cell lines
# Procedure: The cancer cell line cultures of HEK 293 ([…]), BT474 (breast cancer cell line) and NCI-H226 (lung cancer) were obtained from Pasteur Institute of India, Coonoor, India, and were cultured in RPMI-1640 and 10 % heat-[…] New born calf serum with antibiotics [penicillin ([…]), streptomycin (100 μg/mL) and amphotericin B (25 μg/mL)]. The cells were maintained at 37 °C in a humidified atmosphere with 5 % CO2 and were subcultured twice a week.
# The monolayer cell culture (100 μL) was trypsinized, and the cell count was adjusted to […] using medium containing 10 % new born calf serum. To each well of the 96-well microtitre plate, the diluted cell suspension (approximately 10,000 cells) (0.1 mL) was added and kept for 24 h in incubator at 37 °C in 5 % CO2 atmosphere for cell monolayer formation. After 24 h, when a partial monolayer was formed at the bottom of the well, the supernatant was flicked off, the monolayer was washed once, and different drugs, i.e. synthesized compounds (100 μL), were added to the cells in microtitre plates. The plates were then incubated at 37 °C for 3 days in 5 % CO2 atmosphere, and microscopic examination was carried out and observations recorded every 24 h. After 72 h, the sample solution in the wells was flicked off; MTT dye ([…]) was added to each well; plates were gently shaken and incubated for 4 h at 37 °C in 5 % CO2 incubator. The supernatant was removed and propanol (50 μL) was added; the plates were gently shaken to solubilize the formed formazan. The absorbance was measured using a microplate reader at a wavelength of 490 nm (Edmondson et al., [1988]; Prasad et al., [2005]; Chiruvella et al., [2008]; Chang et al., [2007]).
# [9] = system: BT474 (breast cancer cell line); experiment: In vitro cytotoxicity by MTT assay, BT474; format: cell-based; details: Homo sapiens, 72 h, read-out: % cytotoxicity (100 − % cell survival) of BT474 cell line
# Outline: as §1
smiles,measurement,setting,value
"Cc1c(C)c2c(c(C)c1O)CCC(C)(C(=O)O)O2 (stereo not drawn) [trolox, 6-hydroxy-2,5,7,8-tetramethylchroman-2-carboxylic acid, reference compound]",IC50,[1],84.5 ± 9.39 µM
"O=C1O[C@H]([C@@H](O)CO)C(O)=C1O [ascorbic acid, reference compound]",IC50,[2],187 ± 35.4 µM
same,IC50,[3],150 ± 16.9 µM
"Oc1cc(O)c2c(c1)O[C@H](c1ccc(O)c(O)c1)[C@@H](O)C2 [catechin, reference compound]",IC50,[4],171 ± 9.1 µM
"O=C(NS(=O)(=O)c1nnc(N=Cc2ccco2)s1)c1ccccc1 [Compound 9j, N-({5-[(Furan-2-ylmethylidene)amino]-1,3,4-thiadiazol-2-yl}sulfonyl)benzamide]",melting point,,261 to 263 °C
same,"cytotoxicity at 72 h, 0.005 µM",[5]; 0.005 μM,31.4%
same,"cytotoxicity at 72 h, 0.015 µM",[5]; 0.015 μM,32.8%
same,"cytotoxicity at 72 h, 0.045 µM",[5]; 0.045 μM,33.7%
same,"cytotoxicity at 72 h, 0.13 µM",[5]; 0.13 μM,34.3%
same,"cytotoxicity at 72 h, 0.41 µM",[5]; 0.41 μM,34.5%
same,"cytotoxicity at 72 h, 1.23 µM",[5]; 1.23 μM,35%
same,"cytotoxicity at 72 h, 3.7 µM",[5]; 3.7 μM,35.3%
same,"cytotoxicity at 72 h, 11.11 µM",[5]; 11.11 μM,36.1%
same,"cytotoxicity at 72 h, 33.33 µM",[5]; 33.33 μM,36.9%
same,"cytotoxicity at 72 h, 100 µM",[5]; 100 μM,38.9%
same,cytotoxicity at 0.005 µM,"[6]; NCI-H226, 0.005 μM",33%
same,cytotoxicity at 0.045 µM,"[6]; NCI-H226, 0.045 μM",34.6%
same,cytotoxicity at 0.13 µM,"[6]; NCI-H226, 0.13 μM",35.3%
same,cytotoxicity at 0.41 µM,"[6]; NCI-H226, 0.41 μM",36.1%
same,cytotoxicity at 1.23 µM,"[6]; NCI-H226, 1.23 μM",37%
same,cytotoxicity at 3.7 µM,"[6]; NCI-H226, 3.7 μM",39.1%
same,cytotoxicity at 11.11 µM,"[6]; NCI-H226, 11.11 μM",42.7%
same,cytotoxicity at 33.33 µM,"[6]; NCI-H226, 33.33 μM",45.4%
same,cytotoxicity at 100 µM,"[6]; NCI-H226, 100 μM",52.4%
same,"cytotoxicity at 72 h, 0.015 µM",[7],33.2%
same,cytotoxic activity compared with all synthesized compounds,[8],more potent
same,cytotoxicity at 0.005 µM,"[9]; BT-474, 0.005 μM",30.4%
same,cytotoxicity at 0.015 µM,"[9]; BT-474, 0.015 μM",34.6%
same,cytotoxicity at 0.045 µM,"[9]; BT-474, 0.045 μM",37.4%
same,cytotoxicity at 0.13 µM,"[9]; BT-474, 0.13 μM",40.1%
same,cytotoxicity at 0.41 µM,"[9]; BT-474, 0.41 μM",43.6%
same,cytotoxicity at 1.23 µM,"[9]; BT-474, 1.23 μM",45.1%
same,cytotoxicity at 3.7 µM,"[9]; BT-474, 3.7 μM",49.3%
same,cytotoxicity at 11.11 µM,"[9]; BT-474, 11.11 μM",52.1%
same,cytotoxicity at 33.33 µM,"[9]; BT-474, 33.33 μM",56.9%
same,cytotoxicity at 100 µM,"[9]; BT-474, 100 μM",61.4%
